Measured values published in PubChem BioAssay (NCI).
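Tested at 5 concentrations; 48 h exposure; 96-well plates; endpoints linearly interpolated, else capped at highest concentration. Here, GI50 denotes the concentration required for 50% inhibition of growth. The concentration for full growth arrest is given as TGI.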 Where a SMILES comes first, the peptide text is derived from it. [ ]: non-standard residue; d: D form. The star is where a group is joined. ξ: configuration not given here. ξF = NC(Cc1ccccc1)C(=O)O; Cbz = O=C(OCc1ccccc1)*; Aib = CC(C)(N)C(=O)O

What was measured:
Test in all cases: inhibition of tumour cell growth, NCI panel, 48 h; in the data active means GI50 below about 0.43 µM; inactive means the rest
HCT-15 colon = system: HCT-15 colon
COLO 205 colon = system: COLO 205 colon
U251 CNS = system: U251 CNS
UACC-62 melanoma = system: UACC-62 melanoma
SK-MEL-28 melanoma = system: SK-MEL-28 melanoma
NCI-H522 lung = system: NCI-H522 lung
OVCAR-8 ovarian = system: OVCAR-8 ovarian
UACC-257 melanoma = system: UACC-257 melanoma
NCI/ADR-RES ovarian = system: NCI/ADR-RES ovarian
SN12C renal = system: SN12C renal
NCI-H226 lung = system: NCI-H226 lung

CC(=O)ON1C(=O)c2cccc3cccc(c23)C1=O
67 µM: TGI (UACC-257 melanoma)
43.6 µM: TGI (NCI-H522 lung)
44.6 µM: TGI (SK-MEL-28 melanoma)
86.7 µM: TGI (COLO 205 colon)
52.5 µM: TGI (UACC-62 melanoma)
> 100 µM: TGI (HCT-15 colon) | TGI (U251 CNS) | TGI (OVCAR-8 ovarian) | TGI (NCI/ADR-RES ovarian)

CCOC(=O)CCC(NC(=O)OCc1ccccc1)C(=O)NC(CCC(=O)OCC)C(=O)NNC(=O)OC(C)(C)C (centres undefined)
> 100 µM: TGI (SN12C renal) | TGI (NCI-H226 lung) | TGI (HCT-15 colon) | TGI (COLO 205 colon) | TGI (U251 CNS) | TGI (UACC-62 melanoma) | TGI (SK-MEL-28 melanoma) | TGI (NCI-H522 lung) | TGI (OVCAR-8 ovarian) | TGI (NCI/ADR-RES ovarian)

c1cncc(O[Si](Oc2cccnc2)(Oc2cccnc2)Oc2cccnc2)c1
> 100 µM: TGI (SN12C renal) | TGI (NCI-H226 lung) | TGI (HCT-15 colon) | TGI (COLO 205 colon) | TGI (U251 CNS) | TGI (UACC-62 melanoma) | TGI (SK-MEL-28 melanoma) | TGI (OVCAR-8 ovarian) | TGI (UACC-257 melanoma)

Nc1c(-c2ccccc2[N+](=O)[O-])nc2ccccn12
> 100 µM: TGI (SN12C renal) | TGI (NCI-H226 lung) | TGI (HCT-15 colon) | TGI (COLO 205 colon) | TGI (U251 CNS) | TGI (UACC-62 melanoma) | TGI (SK-MEL-28 melanoma) | TGI (OVCAR-8 ovarian) | TGI (UACC-257 melanoma)

C[CH2][Ge]([CH2]C)([CH2]C)[O]C(=O)CCC(=O)[O][Ge]([CH2]C)([CH2]C)[CH2]C
> 100 µM: TGI (SN12C renal) | TGI (NCI-H226 lung) | TGI (HCT-15 colon) | TGI (COLO 205 colon) | TGI (U251 CNS) | TGI (UACC-62 melanoma) | TGI (SK-MEL-28 melanoma) | TGI (NCI-H522 lung) | TGI (OVCAR-8 ovarian)
inactive: GI50 (SN12C renal) > 100 µM | GI50 (NCI-H226 lung) > 100 µM | GI50 (HCT-15 colon) 48.4 µM | GI50 (COLO 205 colon) > 100 µM | GI50 (U251 CNS) 43.3 µM | GI50 (UACC-62 melanoma) > 100 µM | GI50 (SK-MEL-28 melanoma) > 100 µM | GI50 (NCI-H522 lung) 45.2 µM | GI50 (OVCAR-8 ovarian) 34.7 µM

COC(=O)C(C)(C)NC(=O)C(Cc1ccccc1)NC(=O)C(C)(C)NC(=O)OCc1ccccc1 (centres undefined) (Cbz-[Aib]-[ξF]-[Aib]-OMe)
> 100 µM: TGI (HCT-15 colon) | TGI (COLO 205 colon) | TGI (U251 CNS) | TGI (UACC-62 melanoma) | TGI (SK-MEL-28 melanoma) | TGI (NCI-H522 lung) | TGI (OVCAR-8 ovarian) | TGI (UACC-257 melanoma) | TGI (NCI/ADR-RES ovarian)
